Test [1] deals with T1, Aryl hydrocarbon receptor (Homo sapiens, UniProt P35869).
T1 sequence (P35869 whole entry): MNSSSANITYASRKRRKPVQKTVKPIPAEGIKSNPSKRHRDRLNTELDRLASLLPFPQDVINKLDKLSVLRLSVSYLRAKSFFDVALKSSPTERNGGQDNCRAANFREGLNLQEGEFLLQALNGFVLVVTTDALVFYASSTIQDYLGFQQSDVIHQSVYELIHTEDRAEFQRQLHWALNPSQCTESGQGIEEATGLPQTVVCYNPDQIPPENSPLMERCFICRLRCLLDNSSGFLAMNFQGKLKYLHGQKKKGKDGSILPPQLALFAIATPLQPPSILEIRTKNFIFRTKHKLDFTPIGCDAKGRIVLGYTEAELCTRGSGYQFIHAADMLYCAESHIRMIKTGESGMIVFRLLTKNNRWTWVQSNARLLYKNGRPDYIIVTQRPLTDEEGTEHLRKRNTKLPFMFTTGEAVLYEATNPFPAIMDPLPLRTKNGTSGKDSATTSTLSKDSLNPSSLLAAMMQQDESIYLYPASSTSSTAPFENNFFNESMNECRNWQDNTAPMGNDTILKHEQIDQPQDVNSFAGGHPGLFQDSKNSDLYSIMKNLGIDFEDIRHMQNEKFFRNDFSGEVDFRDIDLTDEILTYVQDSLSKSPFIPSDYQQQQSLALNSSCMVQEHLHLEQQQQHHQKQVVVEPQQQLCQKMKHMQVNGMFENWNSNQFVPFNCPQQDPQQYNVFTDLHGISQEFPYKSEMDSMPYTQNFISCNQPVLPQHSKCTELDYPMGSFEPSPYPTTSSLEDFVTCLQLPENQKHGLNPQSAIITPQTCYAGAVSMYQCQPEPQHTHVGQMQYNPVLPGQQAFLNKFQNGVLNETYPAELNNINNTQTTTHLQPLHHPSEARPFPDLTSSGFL
As to conditions: Potency.

The target in test [2] is Dual specificity protein phosphatase 3 (Homo sapiens, UniProt P51452). The test can be described thus: VHR phosphatase inhibition, dose response, selectivity assay for STEP inhibitor project, biochemical (AID 602374). In kind it is functional. As to conditions: read-out: IC50_Mean.
Test [3] addresses T2, Low molecular weight phosphotyrosine protein phosphatase (Homo sapiens, UniProt P24666).
T2 sequence (P24666 whole entry): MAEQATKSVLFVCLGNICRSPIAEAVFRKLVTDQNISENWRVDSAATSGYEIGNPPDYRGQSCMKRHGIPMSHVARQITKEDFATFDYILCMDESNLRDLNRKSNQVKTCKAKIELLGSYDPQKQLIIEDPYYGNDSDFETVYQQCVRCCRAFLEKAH
In kind it is functional. As to conditions: read-out: IC50_Mean.

For test [4], the target named is T3, Carboxy-terminal domain RNA polymerase II polypeptide A small phosphatase 1 (Homo sapiens, UniProt Q9GZU7).
T3 sequence (Q9GZU7 whole entry): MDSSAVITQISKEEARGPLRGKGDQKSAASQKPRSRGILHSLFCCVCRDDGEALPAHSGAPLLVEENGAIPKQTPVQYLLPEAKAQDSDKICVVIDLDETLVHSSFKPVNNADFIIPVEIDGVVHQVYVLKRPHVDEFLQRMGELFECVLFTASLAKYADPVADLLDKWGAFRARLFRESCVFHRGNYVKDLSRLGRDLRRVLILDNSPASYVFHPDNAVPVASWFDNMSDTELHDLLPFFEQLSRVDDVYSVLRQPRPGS
Description: inhibitors of CTDSP1, concentration-response testing, biochemical assay, absorbance-based, actives from ultra-high-throughput screening (AID 540297). In kind it is functional.

Test [5] has as its target Tyrosine-protein phosphatase non-receptor type 5 (Homo sapiens, UniProt P54829). The test can be described thus: STEP phosphatase inhibitors, confirmation, biochemical, fluorescence intensity, uHTS hits (AID 602372). The settings on record: read-out: IC50_Mean. In kind it is functional.
The target of test [6] is Tyrosine-protein phosphatase non-receptor type 11 (Homo sapiens, UniProt Q06124). Description: SHP2 phosphatase inhibition, dose response, selectivity assay for STEP inhibitor project, biochemical (AID 602367). In kind it is functional. The settings on record: read-out: IC50_Mean.
Test [7] concerns the target T2, Low molecular weight phosphotyrosine protein phosphatase. The format is functional. As to conditions: read-out: IC50_Mean. The source holds these as a separate data set.
Test [8] in a line: Fluorescence-based cell-based high throughput dose response assay for inhibitors of the interaction of nucleotide-binding oligomerization domain containing 2 (NOD2) and the receptor-interacting serine-threonine kinase 2 (RIPK2). In kind it is functional. As to conditions: Homo sapiens.
A further test deals with Beta Lactamase (Pseudomonas aeruginosa, UniProt Q932Y6). Description: beta-lactamase reporter inhibitor potency, dose response, artefact control for NOD2-RIPK2 interaction inhibitor project, BLA reporter cells, FRET fluorescence (AID 651552). In kind it is functional, cell-based.
The target in a further test is T4, Caspase-6 (Homo sapiens, UniProt P55212).
T4 sequence (P55212 whole entry): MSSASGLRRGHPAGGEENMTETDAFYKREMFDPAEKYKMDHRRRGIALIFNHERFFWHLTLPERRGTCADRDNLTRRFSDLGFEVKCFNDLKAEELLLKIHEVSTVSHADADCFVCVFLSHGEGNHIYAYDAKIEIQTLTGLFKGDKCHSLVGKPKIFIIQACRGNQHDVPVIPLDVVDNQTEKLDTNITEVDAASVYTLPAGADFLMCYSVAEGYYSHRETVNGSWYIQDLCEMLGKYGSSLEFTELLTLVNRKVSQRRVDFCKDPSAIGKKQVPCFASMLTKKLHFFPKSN
Description: human caspase-6 inhibitors, dose response, biochemical, VEID-R110 fluorescence, cherry-pick (AID 720632).

For test [9], the target named is T5, Small ubiquitin-related modifier 1 (Homo sapiens, UniProt P63165). The test can be described thus: inhibitors of SUMO1 partner interactions, dose response, biochemical, FRET (AID 624383). As to conditions: read-out: IC50_Mean. In kind it is functional.
Test [10] concerns the target T6, Probable nicotinate-nucleotide adenylyltransferase (Staphylococcus aureus (strain N315), UniProt P65502). The format is functional, Staphylococcus aureus subsp. aureus N315.
The target of test [11] is T6, Probable nicotinate-nucleotide adenylyltransferase. The format is functional, Staphylococcus aureus subsp. aureus N315. The settings on record: read-out: IC50_Mean.
A short description of test [12]: HeLa cell cytotoxicity, dose response, cytotoxicity control for MgcRacGAP inhibitor project (AID 624300). In kind it is functional.
The target of test [13] is T5, Small ubiquitin-related modifier 1. The test can be described thus: inhibitors of SUMO1 peptide binding, dose response, biochemical, fluorescence polarization, uHTS hits (AID 624382). In kind it is functional. The settings on record: read-out: IC50_Mean. A general note: Polarisation of emitted light reports the rotation of a fluorescent probe.
Test [14] deals with T7, Rac GTPase-activating protein 1 (Homo sapiens, UniProt Q9H0H5).
T7 sequence (Q9H0H5 whole entry): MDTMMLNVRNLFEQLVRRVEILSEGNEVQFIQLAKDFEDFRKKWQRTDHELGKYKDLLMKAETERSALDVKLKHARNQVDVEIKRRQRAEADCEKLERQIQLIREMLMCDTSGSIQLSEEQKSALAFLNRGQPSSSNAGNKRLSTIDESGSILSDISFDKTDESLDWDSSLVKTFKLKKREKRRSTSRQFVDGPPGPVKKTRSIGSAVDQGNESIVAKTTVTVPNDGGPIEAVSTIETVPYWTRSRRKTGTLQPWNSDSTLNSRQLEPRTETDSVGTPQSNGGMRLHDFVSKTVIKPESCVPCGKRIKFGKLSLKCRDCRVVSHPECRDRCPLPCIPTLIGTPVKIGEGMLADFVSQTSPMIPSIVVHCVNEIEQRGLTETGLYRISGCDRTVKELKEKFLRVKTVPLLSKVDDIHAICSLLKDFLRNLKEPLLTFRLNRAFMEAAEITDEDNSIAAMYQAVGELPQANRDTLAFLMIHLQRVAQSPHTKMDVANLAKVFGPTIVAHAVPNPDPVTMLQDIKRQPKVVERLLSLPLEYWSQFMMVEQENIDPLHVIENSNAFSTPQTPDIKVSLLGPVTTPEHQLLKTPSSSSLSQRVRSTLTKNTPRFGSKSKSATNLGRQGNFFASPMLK
The test can be described thus: MgcRacGAP GTPase-activating activity inhibitors, confirmation, biochemical, ADP Hunter fluorescence, primary and confirmatory (AID 624330). The format is functional.

Test [15] has as its target Photoreceptor-specific nuclear receptor (Homo sapiens, UniProt Q9Y5X4). The format is functional, cell-based.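 Further: CHO-S cells with Gal4-NCOR and VP16-NR2E3 two-hybrid luciferase reporter.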
The target in test [16] is T8, COUP transcription factor 2 (Homo sapiens, UniProt P24468).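 Further: HEK293 cells transiently cotransfected with COUP-TFII expression vector and reporter; luciferase reporter luminescence driven by COUP-TFII from the pX2-168 reporter plasmid.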
T8 sequence (P24468 whole entry): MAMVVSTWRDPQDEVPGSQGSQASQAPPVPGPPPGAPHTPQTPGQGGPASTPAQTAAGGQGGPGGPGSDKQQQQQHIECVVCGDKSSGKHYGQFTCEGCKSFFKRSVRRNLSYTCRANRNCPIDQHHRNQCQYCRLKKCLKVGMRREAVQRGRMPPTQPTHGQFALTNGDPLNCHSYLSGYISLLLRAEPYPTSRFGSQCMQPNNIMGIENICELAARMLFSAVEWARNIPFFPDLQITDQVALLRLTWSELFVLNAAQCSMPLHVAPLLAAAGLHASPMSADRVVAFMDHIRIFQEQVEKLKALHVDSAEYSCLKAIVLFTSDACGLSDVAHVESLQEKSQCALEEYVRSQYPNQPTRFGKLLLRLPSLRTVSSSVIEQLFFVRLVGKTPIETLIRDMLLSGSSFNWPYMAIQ
The test can be described thus: Luminescence-based cell-based high throughput dose response assay to identify inhibitors of COUP-TFII (NR2F2). In kind it is functional.

Calls of active or inactive are those of the source. Where only a bound is given, the exact number is not on record here.

Sequence of Dual specificity protein phosphatase 3 (P51452 whole entry): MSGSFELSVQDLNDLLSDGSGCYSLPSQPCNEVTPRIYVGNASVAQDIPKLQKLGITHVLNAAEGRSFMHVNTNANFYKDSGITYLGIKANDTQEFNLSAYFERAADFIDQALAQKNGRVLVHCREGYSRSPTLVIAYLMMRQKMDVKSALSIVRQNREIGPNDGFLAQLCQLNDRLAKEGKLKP
Sequence of Tyrosine-protein phosphatase non-receptor type 11 (Q06124 whole entry): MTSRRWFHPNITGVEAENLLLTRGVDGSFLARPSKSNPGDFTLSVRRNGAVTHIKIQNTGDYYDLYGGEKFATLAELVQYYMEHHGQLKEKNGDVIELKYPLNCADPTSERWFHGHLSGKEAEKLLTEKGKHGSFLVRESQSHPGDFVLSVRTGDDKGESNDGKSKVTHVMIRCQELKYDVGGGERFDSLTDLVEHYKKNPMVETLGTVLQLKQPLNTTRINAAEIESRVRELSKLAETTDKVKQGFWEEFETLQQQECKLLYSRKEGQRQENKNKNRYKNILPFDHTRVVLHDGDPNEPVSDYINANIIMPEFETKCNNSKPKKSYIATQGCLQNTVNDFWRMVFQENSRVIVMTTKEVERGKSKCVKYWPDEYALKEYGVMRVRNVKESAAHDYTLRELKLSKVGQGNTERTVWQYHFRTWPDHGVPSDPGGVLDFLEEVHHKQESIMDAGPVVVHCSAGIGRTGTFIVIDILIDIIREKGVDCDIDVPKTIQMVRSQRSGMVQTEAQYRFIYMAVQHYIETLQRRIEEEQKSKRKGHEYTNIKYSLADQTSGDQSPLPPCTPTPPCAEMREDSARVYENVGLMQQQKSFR
Sequence of Tyrosine-protein phosphatase non-receptor type 5 (P54829 whole entry): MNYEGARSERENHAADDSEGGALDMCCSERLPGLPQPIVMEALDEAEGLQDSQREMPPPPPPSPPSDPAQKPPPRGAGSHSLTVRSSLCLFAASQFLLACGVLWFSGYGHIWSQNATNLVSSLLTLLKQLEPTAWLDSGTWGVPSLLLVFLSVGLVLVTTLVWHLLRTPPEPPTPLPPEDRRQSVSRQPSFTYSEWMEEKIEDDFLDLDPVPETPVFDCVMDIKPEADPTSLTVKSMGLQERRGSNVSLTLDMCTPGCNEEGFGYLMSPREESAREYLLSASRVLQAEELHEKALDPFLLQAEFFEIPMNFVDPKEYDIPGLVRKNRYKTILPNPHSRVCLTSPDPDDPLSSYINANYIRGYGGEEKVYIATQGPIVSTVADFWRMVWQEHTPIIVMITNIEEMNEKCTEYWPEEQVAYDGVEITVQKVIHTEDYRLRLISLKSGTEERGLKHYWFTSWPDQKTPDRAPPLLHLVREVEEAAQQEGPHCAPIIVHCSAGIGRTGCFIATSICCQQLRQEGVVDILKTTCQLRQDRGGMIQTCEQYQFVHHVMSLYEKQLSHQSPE
T5 sequence (P63165 whole entry): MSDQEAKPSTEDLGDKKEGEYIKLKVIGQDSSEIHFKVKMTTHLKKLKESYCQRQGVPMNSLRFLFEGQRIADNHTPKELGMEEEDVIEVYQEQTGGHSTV
T6 sequence (P65502 whole entry): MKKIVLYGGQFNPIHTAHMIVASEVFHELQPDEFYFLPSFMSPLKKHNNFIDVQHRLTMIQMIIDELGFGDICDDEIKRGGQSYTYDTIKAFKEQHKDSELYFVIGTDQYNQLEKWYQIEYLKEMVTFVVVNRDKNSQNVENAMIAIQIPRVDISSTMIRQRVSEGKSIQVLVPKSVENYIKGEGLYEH
Sequence of Photoreceptor-specific nuclear receptor (Q9Y5X4 whole entry, the tested form may be a part): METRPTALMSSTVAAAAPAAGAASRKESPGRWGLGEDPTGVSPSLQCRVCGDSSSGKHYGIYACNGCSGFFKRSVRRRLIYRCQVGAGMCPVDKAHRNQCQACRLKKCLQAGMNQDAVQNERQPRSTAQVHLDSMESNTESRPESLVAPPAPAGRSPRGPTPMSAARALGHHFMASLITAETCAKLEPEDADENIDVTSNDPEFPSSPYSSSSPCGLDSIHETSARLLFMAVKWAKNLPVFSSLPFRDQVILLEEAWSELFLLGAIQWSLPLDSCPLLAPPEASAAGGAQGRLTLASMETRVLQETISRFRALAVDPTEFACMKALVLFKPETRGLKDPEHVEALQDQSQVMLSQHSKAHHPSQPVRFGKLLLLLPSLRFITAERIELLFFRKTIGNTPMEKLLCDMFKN
Sequence of Beta Lactamase (Q932Y6 whole entry): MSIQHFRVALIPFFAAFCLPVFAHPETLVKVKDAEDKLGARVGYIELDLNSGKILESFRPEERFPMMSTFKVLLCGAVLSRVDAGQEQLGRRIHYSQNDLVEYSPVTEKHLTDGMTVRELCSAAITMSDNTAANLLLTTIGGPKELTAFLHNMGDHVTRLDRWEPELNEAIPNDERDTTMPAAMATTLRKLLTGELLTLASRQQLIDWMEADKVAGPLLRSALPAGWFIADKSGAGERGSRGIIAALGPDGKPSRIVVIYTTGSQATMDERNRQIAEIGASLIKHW

A word on the AC50: it is the concentration at which the activity in the assay is half-maximal. For `O=[N+]([O-])c1cc(C(F)(F)F)c(Cl)c([N+](=O)[O-])c1Nc1ncc(C(F)(F)F)cc1Cl` [FLUAZINAM], the AC50 in test [1] is 31.6 µM (inconclusive).

With `O=C(CCc1ccccc1)NNC(=O)c1ccc(NC(=O)c2ccccc2)cc1`, the IC50 in [2] was 3.9 µM (active); in test [3], 24.9 µM (inactive); in test [4], 6.27 µM (active); in test [5], 17.3 µM (active); in test [6] it was 3.98 µM (active); in [7], 31.2 µM (inactive).

Take `CCOC(=O)[C@]12Cc3cc(Cl)ccc3[C@H]1N(C(C)C)C(=O)c1ccccc12`: the results for the IC50 (in test [8]; at Beta Lactamase) were 2.21 µM (active) and 45.2 µM (inactive), respectively.

Regarding `CC(=O)N1CCOc2ccc(S(=O)(=O)NCc3ccc(F)cc3)cc21`, the IC50 in test [2] was 2.66 µM (active); in test [4], 9.32 µM (active); in [5], 56.5 µM (inactive); in test [6] it was 4.64 µM (active). Further, the concentration at half-maximal activity (AC50) at Caspase-6 is 11.2 µM (active).

The CC50 is the concentration that lowers cell viability or growth by half. `Cc1cc(NCCCCCCCNc2cc(C)nc3cc([N+](=O)[O-])ccc23)c2ccc([N+](=O)[O-])cc2n1`: the IC50 in test [9] is 2.12 µM (active); in [10], 15.2 µM (active); in test [11] it was 23.2 µM (active); in test [13], > 66.6 µM (inactive); in [14], 26.1 µM (active). The half-maximal cytotoxic concentration (CC50) in test [12] was 37.8 µM (active).

`c1ccc(C(Cc2nc(-c3ccncc3)no2)c2ccccc2)cc1`: the figures for the IC50 in test [15] and in test [16] were 5.57 µM (active) and 14 µM (inactive), respectively.

In the case of `Nc1c(Cl)c(Cl)c(Cl)c(Cl)c1Cl`, in test [1], the AC50 was 44.7 µM (inconclusive).

On to `O=C(NC(=O)N1CCN(c2cccc(Cl)c2)CC1)c1ccccc1`, for which the IC50 in test [15] is 4.75 µM (active).
